# Assay results from US20100204113A1, “USE OF STRESSCOPIN-RELATED PEPTIDE AS A THERAPEUTIC AGENT” (priority 2007, published 2010).
# No end group written: not given here.
# Test system: drug-resistant Mycobacterium tuberculosis
# Conditions: peptide 10 micrograms per ml, seven days
substance,measurement,value
HPGSRIVLSLDVPIGLLQILLEQARARAAREQATTNARILARV-NH2 [Stresscopin-related peptide],% inhibition,0.0%
